In PubChem BioAssay (NCI):
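Method: 48-hour compound exposure of cells in 96-well plates, five concentrations, linear interpolation of endpoints. GI50 marks 50% less growth. The concentration for full growth arrest is given as TGI.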

Legend:
Assay in all cases: NCI tumour cell line growth inhibition, 48 h
SF-268 CNS = tested on: SF-268 CNS
T-47D breast = tested on: T-47D breast
RPMI-8226 leukemia = tested on: RPMI-8226 leukemia
MDA-MB-231 breast = tested on: MDA-MB-231 breast
MDA-MB-435 = tested on: MDA-MB-435
HCT-15 colon = tested on: HCT-15 colon
OVCAR-4 ovarian = tested on: OVCAR-4 ovarian
HS 578T breast = tested on: HS 578T breast
CCRF-CEM leukemia = tested on: CCRF-CEM leukemia
SF-539 CNS = tested on: SF-539 CNS
SK-MEL-5 melanoma = tested on: SK-MEL-5 melanoma
DU-145 prostate = tested on: DU-145 prostate
SNB-19 CNS = tested on: SNB-19 CNS
NCI-H460 lung = tested on: NCI-H460 lung
IGROV1 ovarian = tested on: IGROV1 ovarian
UACC-257 melanoma = tested on: UACC-257 melanoma
OVCAR-8 ovarian = tested on: OVCAR-8 ovarian
SR leukemia = tested on: SR leukemia
CAKI-1 renal = tested on: CAKI-1 renal
SN12C renal = tested on: SN12C renal
UO-31 renal = tested on: UO-31 renal
NCI-H226 lung = tested on: NCI-H226 lung
KM12 colon = tested on: KM12 colon
SNB-75 CNS = tested on: SNB-75 CNS
RXF 393 renal = tested on: RXF 393 renal
SK-MEL-28 melanoma = tested on: SK-MEL-28 melanoma
NCI/ADR-RES ovarian = tested on: NCI/ADR-RES ovarian
COLO 205 colon = tested on: COLO 205 colon
HL-60(TB) leukemia = tested on: HL-60(TB) leukemia
HCC-2998 colon = tested on: HCC-2998 colon
LOX IMVI melanoma = tested on: LOX IMVI melanoma
ACHN renal = tested on: ACHN renal
NCI-H23 lung = tested on: NCI-H23 lung
A498 renal = tested on: A498 renal
M14 melanoma = tested on: M14 melanoma
HCT-116 colon = tested on: HCT-116 colon
UACC-62 melanoma = tested on: UACC-62 melanoma
SW-620 colon = tested on: SW-620 colon
U251 CNS = tested on: U251 CNS
OVCAR-3 ovarian = tested on: OVCAR-3 ovarian
BT-549 breast = tested on: BT-549 breast
HOP-92 NSCLC = tested on: HOP-92 NSCLC
NCI-H522 lung = tested on: NCI-H522 lung
SK-MEL-2 melanoma = tested on: SK-MEL-2 melanoma
SK-OV-3 ovarian = tested on: SK-OV-3 ovarian
TK-10 renal = tested on: TK-10 renal
PC-3 prostate = tested on: PC-3 prostate
786-0 renal = tested on: 786-0 renal
HOP-62 NSCLC = tested on: HOP-62 NSCLC
A549 NSCLC = tested on: A549 NSCLC
SF-295 CNS = tested on: SF-295 CNS
OVCAR-5 ovarian = tested on: OVCAR-5 ovarian
MOLT-4 leukemia = tested on: MOLT-4 leukemia
MCF7 breast = tested on: MCF7 breast
MALME-3M melanoma = tested on: MALME-3M melanoma
HT29 colon = tested on: HT29 colon
K-562 leukemia = tested on: K-562 leukemia
EKVX NSCLC = tested on: EKVX NSCLC

COc1cc(Cn2c(SCC(=O)Nc3ccc(Cl)cc3)nc3ccccc3c2=O)cc(OC)c1OC
GI50 (SF-268 CNS): 6.61 µM | TGI (SF-268 CNS): 24.8 µM | GI50 (T-47D breast): 2.16 µM | TGI (T-47D breast): 8.21 µM | GI50 (RPMI-8226 leukemia): 22.9 µM | TGI (RPMI-8226 leukemia): > 100 µM | GI50 (MDA-MB-231 breast): 3.08 µM | TGI (MDA-MB-231 breast): 13 µM | GI50 (MDA-MB-435): 22.8 µM | TGI (MDA-MB-435): > 100 µM | GI50 (HCT-15 colon): 17 µM | TGI (HCT-15 colon): > 100 µM | GI50 (OVCAR-4 ovarian): 3.01 µM | TGI (OVCAR-4 ovarian): 13.9 µM | GI50 (HS 578T breast): 3.95 µM | TGI (HS 578T breast): 40.3 µM | GI50 (CCRF-CEM leukemia): > 100 µM | TGI (CCRF-CEM leukemia): > 100 µM | GI50 (SF-539 CNS): 2.29 µM | TGI (SF-539 CNS): 6.5 µM | GI50 (SK-MEL-5 melanoma): 6.38 µM | TGI (SK-MEL-5 melanoma): 21.2 µM | GI50 (DU-145 prostate): 18.1 µM | TGI (DU-145 prostate): > 100 µM | GI50 (SNB-19 CNS): 6.8 µM | TGI (SNB-19 CNS): 26 µM | GI50 (NCI-H460 lung): 10.4 µM | TGI (NCI-H460 lung): 59.1 µM | GI50 (IGROV1 ovarian): 19 µM | TGI (IGROV1 ovarian): 55.8 µM | GI50 (UACC-257 melanoma): 6.04 µM | TGI (UACC-257 melanoma): 28 µM | GI50 (OVCAR-8 ovarian): 4.82 µM | TGI (OVCAR-8 ovarian): 16.1 µM | GI50 (SR leukemia): 18.5 µM | TGI (SR leukemia): > 100 µM | GI50 (CAKI-1 renal): 11.3 µM | TGI (CAKI-1 renal): 58.1 µM | GI50 (SN12C renal): 16.9 µM | TGI (SN12C renal): > 100 µM | GI50 (UO-31 renal): 3.75 µM | TGI (UO-31 renal): 32.4 µM | GI50 (NCI-H226 lung): 4 µM | TGI (NCI-H226 lung): 26.2 µM | GI50 (KM12 colon): 32.3 µM | TGI (KM12 colon): > 100 µM | GI50 (SNB-75 CNS): 1.58 µM | TGI (SNB-75 CNS): 4.89 µM | GI50 (RXF 393 renal): 2.59 µM | TGI (RXF 393 renal): 8.88 µM | GI50 (SK-MEL-28 melanoma): 11.4 µM | TGI (SK-MEL-28 melanoma): 50.9 µM | GI50 (NCI/ADR-RES ovarian): 8.38 µM | TGI (NCI/ADR-RES ovarian): 27.6 µM | GI50 (COLO 205 colon): 73.2 µM | TGI (COLO 205 colon): > 100 µM | GI50 (HL-60(TB) leukemia): > 100 µM | TGI (HL-60(TB) leukemia): > 100 µM | GI50 (HCC-2998 colon): 26.6 µM | TGI (HCC-2998 colon): > 100 µM | GI50 (LOX IMVI melanoma): 13.5 µM | TGI (LOX IMVI melanoma): > 100 µM | GI50 (ACHN renal): 3.15 µM | TGI (ACHN renal): 11.8 µM | GI50 (NCI-H23 lung): 16.5 µM | TGI (NCI-H23 lung): 72.6 µM | GI50 (A498 renal): 2.42 µM | TGI (A498 renal): 12.2 µM | GI50 (M14 melanoma): 16.5 µM | TGI (M14 melanoma): 86.4 µM | GI50 (HCT-116 colon): 4.04 µM | TGI (HCT-116 colon): 14.9 µM | GI50 (UACC-62 melanoma): 6.29 µM | TGI (UACC-62 melanoma): 37.1 µM | GI50 (SW-620 colon): 31.8 µM | TGI (SW-620 colon): > 100 µM | GI50 (U251 CNS): 3.14 µM | TGI (U251 CNS): 11.1 µM | GI50 (OVCAR-3 ovarian): 7.86 µM | TGI (OVCAR-3 ovarian): 31 µM | GI50 (BT-549 breast): 6.42 µM | TGI (BT-549 breast): 23.8 µM | GI50 (HOP-92 NSCLC): 2.26 µM | TGI (HOP-92 NSCLC): 9.12 µM | GI50 (NCI-H522 lung): 4.89 µM | TGI (NCI-H522 lung): 21.9 µM | GI50 (SK-MEL-2 melanoma): 15.2 µM | TGI (SK-MEL-2 melanoma): 32.9 µM | GI50 (SK-OV-3 ovarian): 4.2 µM | TGI (SK-OV-3 ovarian): 16.7 µM | GI50 (TK-10 renal): 2.63 µM | TGI (TK-10 renal): 7.67 µM | GI50 (PC-3 prostate): 16.7 µM | TGI (PC-3 prostate): > 100 µM | GI50 (786-0 renal): 3.37 µM | TGI (786-0 renal): 12.3 µM | GI50 (HOP-62 NSCLC): 3.1 µM | TGI (HOP-62 NSCLC): 14.5 µM | GI50 (A549 NSCLC): 4.66 µM | TGI (A549 NSCLC): 21.1 µM | GI50 (SF-295 CNS): 5.54 µM | TGI (SF-295 CNS): 18.4 µM | GI50 (OVCAR-5 ovarian): 14.8 µM | TGI (OVCAR-5 ovarian): > 100 µM | GI50 (MOLT-4 leukemia): > 100 µM | TGI (MOLT-4 leukemia): > 100 µM | GI50 (MCF7 breast): 8.97 µM | TGI (MCF7 breast): 55.1 µM

CN(C)c1ccc(/C=c2/c3ccccc3n3c2cc(NC(=O)NCCC[N+](C)(C)C)[n+]3C)cc1
TGI (SF-268 CNS): > 100 µM | TGI (T-47D breast): > 100 µM | TGI (RPMI-8226 leukemia): > 100 µM | TGI (MDA-MB-231 breast): > 100 µM | TGI (MDA-MB-435): > 100 µM | TGI (MALME-3M melanoma): > 100 µM | TGI (HCT-15 colon): > 100 µM | TGI (OVCAR-4 ovarian): 50.1 µM | TGI (HS 578T breast): > 100 µM | TGI (CCRF-CEM leukemia): 2.04 µM | TGI (SF-539 CNS): > 100 µM | TGI (SK-MEL-5 melanoma): > 100 µM | TGI (DU-145 prostate): > 100 µM | TGI (SNB-19 CNS): > 100 µM | TGI (NCI-H460 lung): > 100 µM | TGI (IGROV1 ovarian): 46.9 µM | TGI (UACC-257 melanoma): > 100 µM | TGI (OVCAR-8 ovarian): > 100 µM | TGI (SR leukemia): > 100 µM | TGI (CAKI-1 renal): > 100 µM | TGI (UO-31 renal): > 100 µM | TGI (KM12 colon): > 100 µM | TGI (HT29 colon): > 100 µM | TGI (RXF 393 renal): > 100 µM | TGI (SK-MEL-28 melanoma): > 100 µM | TGI (NCI/ADR-RES ovarian): > 100 µM | TGI (COLO 205 colon): > 100 µM | TGI (HL-60(TB) leukemia): > 100 µM | TGI (LOX IMVI melanoma): > 100 µM | TGI (K-562 leukemia): > 100 µM | TGI (ACHN renal): > 100 µM | TGI (NCI-H23 lung): > 100 µM | TGI (A498 renal): > 100 µM | TGI (M14 melanoma): > 100 µM | TGI (HCT-116 colon): > 100 µM | TGI (UACC-62 melanoma): > 100 µM | TGI (SW-620 colon): > 100 µM | TGI (U251 CNS): > 100 µM | TGI (OVCAR-3 ovarian): > 100 µM | TGI (BT-549 breast): > 100 µM | TGI (HOP-92 NSCLC): > 100 µM | TGI (NCI-H522 lung): > 100 µM | TGI (SK-MEL-2 melanoma): > 100 µM | TGI (SK-OV-3 ovarian): > 100 µM | TGI (TK-10 renal): > 100 µM | TGI (PC-3 prostate): > 100 µM | TGI (786-0 renal): > 100 µM | TGI (HOP-62 NSCLC): > 100 µM | TGI (EKVX NSCLC): > 100 µM | TGI (A549 NSCLC): > 100 µM | TGI (SF-295 CNS): > 100 µM | TGI (OVCAR-5 ovarian): > 100 µM | TGI (MOLT-4 leukemia): > 100 µM | TGI (MCF7 breast): > 100 µM
